According to ChEMBL document CHEMBL1130169, “Validation of EGSITE2, a mixed integer program for deducing objective site models for experimental binding data” (J Med Chem, 1997):

These molecules were tested against T1, Sex hormone-binding globulin (Homo sapiens) (UniProt P04278).
T1 sequence (whole entry): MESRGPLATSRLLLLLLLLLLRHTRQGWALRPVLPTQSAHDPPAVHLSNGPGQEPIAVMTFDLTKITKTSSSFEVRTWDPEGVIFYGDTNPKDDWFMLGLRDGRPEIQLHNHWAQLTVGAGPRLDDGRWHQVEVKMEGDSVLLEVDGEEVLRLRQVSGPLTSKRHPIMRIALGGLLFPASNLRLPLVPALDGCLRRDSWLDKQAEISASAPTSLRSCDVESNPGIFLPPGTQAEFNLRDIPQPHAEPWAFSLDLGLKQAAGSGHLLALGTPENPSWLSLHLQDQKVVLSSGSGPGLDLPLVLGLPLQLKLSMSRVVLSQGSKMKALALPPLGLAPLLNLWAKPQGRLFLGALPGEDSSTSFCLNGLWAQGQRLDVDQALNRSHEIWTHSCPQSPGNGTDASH
Description: Binding affinity towards human testosterone binding globulin.

| Structure (SMILES) | -Log Kdiss |
| --- | --- |
| C[C@]12C[C@H](O)[C@H]3[C@@H](CCC4=CC(=O)CC[C@@]43C)[C@@H]1CC[C@@H]2C(=O)CO | 5.34 |
| C[C@]12CC[C@@H](O)C[C@@H]1CC[C@@H]1[C@@H]2CC[C@]2(C)C(=O)CC[C@@H]12 | 6.15 |
| C[C@]12CCC(=O)C=C1CC[C@@H]1[C@@H]2CC[C@]2(C)C(=O)CC[C@@H]12 | 6.46 |
| CC(=O)[C@H]1CC[C@H]2[C@@H]3CCC4=CC(=O)CC[C@]4(C)[C@H]3CC[C@]12C | 5.94 |
| C[C@]12CC[C@H](O)CC1=CCC1C2CC[C@]2(C)C(=O)CCC12 (some centres undefined) | 6.82 |
| C[C@]12CCC(=O)C=C1CC[C@@H]1[C@@H]2[C@@H](O)C[C@@]2(C)[C@H]1CC[C@]2(O)C(=O)CO | 5.2 |
| C[C@]12CCC3C(CC[C@@H]4CC(O)=CC[C@]34C)C1CCC2=O (some centres undefined) | 5.15 |
| C[C@]12CC[C@@H]3c4ccc(O)cc4CC[C@H]3[C@@H]1C[C@@H](O)[C@@H]2O | 5.63 |
| C[C@]12CC[C@@H]3c4ccc(O)cc4CCC3[C@@H]1CCC2=O (single isomer, unassigned) | 7.18 |
| CC(=O)[C@@]1(O)CC[C@H]2[C@@H]3CCC4=CC(=O)CC[C@]4(C)[C@H]3CC[C@@]21C | 6 |
| C[C@]12CCC(=O)C=C1CC[C@@H]1[C@@H]2C(=O)C[C@@]2(C)[C@H]1CC[C@]2(O)C(=O)CO | 5.43 |
| C[C@]12CC[C@H]3[C@@H](CCC4=CC(=O)CC[C@@]43C)[C@@H]1CC[C@@H]2C(=O)CO | 6.38 |
| C[C@]12CC[C@H]3[C@@H](CCC4=CC(=O)CC[C@@]43C)[C@@H]1CC[C@@H]2O | 8.2 |
| C[C@]12CCC(=O)C[C@@H]1CC[C@@H]1[C@@H]2CC[C@]2(C)[C@@H](O)CC[C@@H]12 | 8.74 |
| C[C@]12CCC(=O)C=C1CC[C@@H]1[C@@H]2CC[C@@]2(C)[C@H]1CC[C@]2(O)C(=O)CO | 6.2 |
| CC(=O)[C@@]1(O)CC[C@H]2[C@@H]3CC=C4C[C@@H](O)CC[C@]4(C)[C@H]3CC[C@@]21C | 5.36 |
| C[C@]12CCC(=O)C=C1CCC1C3CC[C@H](C(=O)CO)[C@@]34C[C@H](OC4O)C12 (some centres undefined) | 4.32 |
| C[C@]12CC[C@H](O)C[C@@H]1CC[C@@H]1[C@@H]2CC[C@]2(C)[C@@H](O)CC[C@@H]12 | 8.11 |
| CC(=O)[C@H]1CC[C@H]2[C@@H]3CC=C4C[C@@H](O)CC[C@]4(C)[C@H]3CC[C@]12C | 6.15 |
